Assays:
thromboxane synthetase = molecular target: T1, thromboxane synthetase (Rattus norvegicus, UniProt P49430); assay: Inhibition of thromboxane (TXA2) formation, determined as TXB2 formed by washed SHR platelets (direct RIA); assay type: cell-based, Okamoto-Aoki spontaneously hypertensive rats (SHR); details: Dose 10^-4 M, 10 minutes at 37° C., pH 7.4
T1 construct: The platelets were isolated by centrifuging the PRP for 10 minutes at 1060 xg; endogenous in cells; host or cells: washed platelets from arterial blood of Okamoto-Aoki spontaneously hypertensive rats (Taconic Farms), 19 to 24 weeks old
T1 sequence (P49430 1-533): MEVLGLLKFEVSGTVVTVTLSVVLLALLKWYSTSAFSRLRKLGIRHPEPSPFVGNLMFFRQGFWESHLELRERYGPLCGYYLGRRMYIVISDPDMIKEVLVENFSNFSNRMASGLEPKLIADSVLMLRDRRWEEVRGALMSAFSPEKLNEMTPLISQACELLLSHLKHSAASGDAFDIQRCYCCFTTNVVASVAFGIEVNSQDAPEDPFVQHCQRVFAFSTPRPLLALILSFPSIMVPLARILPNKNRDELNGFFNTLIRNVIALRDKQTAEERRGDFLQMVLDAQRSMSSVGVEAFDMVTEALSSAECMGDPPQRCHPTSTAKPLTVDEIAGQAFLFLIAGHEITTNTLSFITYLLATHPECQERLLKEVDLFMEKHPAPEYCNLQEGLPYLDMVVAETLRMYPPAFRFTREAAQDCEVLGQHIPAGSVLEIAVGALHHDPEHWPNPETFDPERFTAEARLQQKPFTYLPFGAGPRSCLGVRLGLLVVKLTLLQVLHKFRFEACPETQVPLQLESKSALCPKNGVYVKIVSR
Procedure: The inhibition of thromboxane (TXA2) formation was studied by determining the concentration of thromboxane B2 (TXB2), the stable hydrolysis product of TXA2.
The blood was diluted with 3 ml cold saline and centrifuged at room temperature for 15 minutes at 460 xg. The platelet rich plasma (PRP) was separated. The platelets were isolated by centrifuging the PRP for 10 minutes at 1060 xg and were washed in 4 ml cold oxygenated Krebs phosphate buffer, pH 7.4. the chilled platelets recovered from centrifuging at 800 xg for 10 minutes were resuspended in oxygenated Krebs phosphate buffer and diluted to contain 4.5-6.0×10^4 platelets/μl. […] The samples were incubated for 10 minutes at 37° C. in a metabolic shaker. The reaction was terminated by immersing the tubes in an ice bath and adding 50 μl of 0.5 M citric acid. The samples were centrifuged for 10 minutes in a refrigerated centrifuge and the supernatants thus obtained were decanted and stored at -20° C. The TXB2 content for each sample was determined by a direct radioimmunoassay (RIA) utilizing a TXB2 specific RIA kit purchased from New England Nuclear, Boston, MA and expressed as pg TXB2 formed minute^-1 sample^-1, from which the percent inhibition of TXB2 formation was calculated.

[1] = system: spontaneously hypertensive rats of the Okamoto strain; assay: Hypotensive activity in spontaneously hypertensive rats, mean arterial blood pressure (method of Chan and Poorvin); assay type: in vivo; details: by gavage, 100 mg/kg or less, second identical dose at 24 hours; measured 28 hours after initial dose; SHR average MABP 160±1.5 mm Hg
Procedure: Male, 16 week old, spontaneously hypertensive rats of the Okamoto strain, from Taconic Farms, Germantown, N.Y., having an average means arterial blood pressure of 160±1.5 mm of mercury are used in the test. One to three rats are used per test compound. A rat is dosed by gavage with a test compound, suspended in 2% pre-boiled starch at a concentration of 50 mg/ml, at a dose of 100 mg/kg of body weight or less with 0.9% sodium chloride loading at a dose of 25 ml/kg of body weight. A second identical dose of the test compound, without sodium chloride loading is given 24 hours later. At 28 hours after the initial dose the mean arterial blood pressure is measured by the method of Chan and Poorvin vide supra. The procedure is repeated in a second and third rat when necessary.

Row | inhibition at 100 µM (thromboxane synthetase) [%] | SMILES | MABP (mean arterial blood pressure) [1] [mm Hg]
1 | 56 | Cc1nccn1CCCNC(=O)c1cc2ccccc2n1C [1-Methyl-N-[3-(2-methyl-1H-imidazol-1-yl)-propyl]-1H-indole-2-carboxamide] | 
2 | 85 | Cc1cn(CCCNC(=O)c2cc3ccccc3n2C)cn1 [1-Methyl-N-[3-(4-methyl-1H-imidazol-1-yl)propyl]-1H-indole-2-carboxamide] | 136
3 | 98 | CC(CCNC(=O)c1cc2cc(Cl)ccc2[nH]1)n1ccnc1 (stereo not drawn) [5-Chloro-N-[3-(1H-imidazol-1-yl)-butyl]-1H-indole-2-carboxamide] | 119
4 | 95 | O=C(NCCCn1ccnc1)c1cc2cc(Cl)ccc2[nH]1 [5-Chloro-N-[3-(1H-imidazol-1-yl)propyl]-1H-indole-2-carboxamide] | 
5 | 100 | Cc1cn(CCCNC(=O)c2cc3cc(Cl)ccc3[nH]2)cn1 [5-Chloro-N-[3-(4-methyl-1H-imidazol-1-yl)propyl]-1H-indole-2-carboxamide] | 135
6 |  | O=C(NCCCCn1ccnc1)c1cc2cc(Cl)ccc2[nH]1 [5-Chloro-N-[4-(1H-imidazol-1-yl)butyl]-1H-indole-2-carboxamide] | 118
7 |  | O=C(NCCCCCn1ccnc1)c1cc2cc(Cl)ccc2[nH]1 [5-Chloro-N-[5-(1H-imidazol-1-yl)pentyl]-1H-indole-2-carboxamide] | 124
8 | 66 | O=C(NCCCCCCCCn1ccnc1)c1cc2cc(Cl)ccc2[nH]1 [5-Chloro-N-[8-(1H-imidazol-1-yl)octyl]-1H-indole-2-carboxamide] | 
9 | 49 | COc1ccc2[nH]c(C(=O)NCCCn3ccnc3C)cc2c1 [5-Methoxy-N-[3-(2-methyl-1H-imidazol-1-yl)propyl]-1H-indole-2-carboxamide] | 
10 | 88 | Cn1c(C(=O)NCCCn2ccnc2)cc2ccccc21 [N-[3-(1H-Imidazol-1-yl)propyl]-1-methyl-1H-indole-2-carboxamide] | 
11 | 94 | O=C(NCCCn1ccnc1)c1cc2ccccc2[nH]1 [N-[3-(1H-Imidazol-1-yl)propyl]-1H-indole-2-carboxamide] | 114
12 |  | O=C(NCCCn1ccnc1)c1ccc2[nH]ccc2c1 [N-[3-(1H-Imidazol-1-yl)propyl]-1H-indole-5-carboxamide] | 133
13 | 96 | COc1ccc2[nH]c(C(=O)NCCCn3ccnc3)cc2c1 [N-[3-(1H-Imidazol-1-yl)propyl]-5-methoxy-1H-indole-2-carboxamide] | 
14 | 44 | Cc1nccn1CCCNC(=O)c1cc2ccccc2[nH]1 [N-[3-(2-Methyl-1H-imidazol-1-yl)propyl]-1H-indole2-carboxamide] | 
15 | 91 | O=C(NCCCn1ccnc1-c1ccccc1)c1cc2ccccc2[nH]1 [N-[3-(2-Phenyl-1H-imidazol-1-yl)propyl]-1H-indole-2-carboxamide] | 

Row | SMILES | inhibition at 100 µM (thromboxane synthetase) [%] | MABP (mean arterial blood pressure) [1] [mm Hg]
16 | CC(CNC(=O)c1cc2cc(Cl)ccc2[nH]1)Cn1ccnc1 (stereo not drawn) [5-Chloro-N-[3-(1H-imidazol-1-yl)-2-methylpropyl]-1Hindole-2carboxamide] | 100 | 123
17 | COc1ccc2[nH]c(C(=O)NCCCCn3ccnc3)cc2c1 [5-Methoxy-N-[4-(1H-imidazol-1-yl)butyl]-1H-indole-2-carboxamide] | 100 | 130
18 | Cc1cn(CCCNC(=O)c2cc3ccccc3[nH]2)cn1 [N-[3-(4-Methyl-1H-imidazol-1-yl)propyl]-1H-indole-2-carboxamide] | 100 | 131
19 | O=C(NCCCCn1ccnc1)c1cc2ccccc2[nH]1 [N-[4-(1H-Imidazol-1-yl)butyl]-1H-indole-2-carboxamide] | 100 | 137

From US4619941A, “N-[(1H-imidazol-1-yl)alkyl]-1H-indolecarboxamides useful as thromboxane synthetase inhibitors and antihypertensive agents” (American Cyanamid Company, priority 1984, dated 1986)
